{
  "source": "patent US20250122234A1",
  "about": "“NOVEL CRYSTALLINE FORM OF [(2R,3S,4R,5R)-3,4-DIHYDROXY-5-[4-(HYDROXYAMINO)-2- OXOPYRIMIDIN-1-YL]OXOLAN-2-YL]METHYL-2-METHYLPROPANOATE” (priority 2021, published 2025)",
  "key": {"influenza A viruses": {"tested_on": "influenza A viruses", "parameters": "species or system mice", "conditions": "mouse, in vivo, po"}, "[1]": {"assay": "hygroscopicity, weight increase on exposure to water vapor in climatic chamber", "format": "physicochemical", "conditions": "24 hours, temperature (25±1)°C, relative humidity (80±2)%, 200 mg sample"}, "[2]": {"assay": "study of physicochemical and technological properties"}},
  "data": [
    {"compound": "CC(C)C(=O)OC[C@H]1O[C@@H](n2ccc(NO)nc2=O)[C@H](O)[C@@H]1O", "note": "[Polymorph I, [(2R,3S,4R,5R)-3,4-dihydroxy-5-[4-(hydroxyamino)-2-oxopyrimidin-1-yl]oxolan-2-yl]methyl-2-methylpropanoate]", "values": [
      {"measurement": "clinical symptoms of the disease", "setting": "influenza A viruses", "value": "some animals showed a decrease in body weight and shortness of breath"},
      {"measurement": "titer of the virus in the nasal wash and fever", "setting": "influenza A viruses", "value": "a decrease in the titer of the virus in the nasal wash and a decrease in fever"},
      {"measurement": "X (%), increase in the weight of the test substance", "setting": "[1]", "value": 4.1, "unit": "%"}
    ]},
    {"compound": "CC(C)C(=O)OC[C@H]1O[C@@H](n2ccc(NO)nc2=O)[C@H](O)[C@@H]1O", "note": "[Polymorph II, [(2R,3S,4R,5R)-3,4-dihydroxy-5-[4-(hydroxyamino)-2-oxopyrimidin-1-yl]oxolan-2-yl]methyl-2-methylpropanoate]", "values": [
      {"measurement": "clinical symptoms of the disease", "setting": "influenza A viruses", "value": "some animals showed a decrease in body weight and shortness of breath"},
      {"measurement": "titer of the virus in the nasal wash and fever", "setting": "influenza A viruses", "value": "a decrease in the titer of the virus in the nasal wash and a decrease in fever"},
      {"measurement": "X (%), increase in the weight of the test substance", "setting": "[1]", "value": 5.2, "unit": "%"}
    ]},
    {"compound": "CC(C)C(=O)OC[C@H]1O[C@@H](n2ccc(NO)nc2=O)[C@H](O)[C@@H]1O", "note": "[[(2R,3S,4R,5R)-3,4-dihydroxy-5-[4-(hydroxyamino)-2-oxopyrimidin-1-yl]oxolan-2-yl]methyl-2-methylpropanoate]", "values": [
      {"measurement": "solubility", "setting": "[2]", "value": "higher solubility"},
      {"measurement": "stability", "setting": "[2]", "value": "improving the stability"},
      {"measurement": "clinical symptoms of the disease", "setting": "influenza A viruses", "value": "clinical symptoms of the disease were practically not recorded"},
      {"measurement": "titer of the virus in the nasal wash and fever", "setting": "influenza A viruses", "value": "a decrease in the titer of the virus in the nasal wash and a decrease in fever"},
      {"measurement": "virus titer in the nasal wash, less than in groups 2 and 3 (crystal forms I, II)", "setting": "influenza A viruses", "value": "approximately 20%"},
      {"measurement": "X (%), increase in the weight of the test substance", "setting": "[1]", "value": 0.5, "unit": "%"}
    ]}
  ]
}
